# In patent publication EP4603105A1, “PHARMACEUTICAL COMPOSITION CONTAINING CYCLIC COMPOUND HAVING SELECTIVE KRAS INHIBITORY EFFECT AGAINST HRAS AND NRAS” (CHUGAI SEIYAKU KABUSHIKI KAISHA, priority 2022, dated 2024):
# Like-named read-outs stand apart in the source and are kept apart here.
# How the values were obtained:
# [1] = test system: human lung cancer strain NCI-H441; experiment: NCI-H441 cell proliferation inhibitory activity (CellTiter-Glo, 4 days); format: cell-based; details: read-out: NCl-H441 IC50
# Procedure, shortened: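 Signal came from […] measured per well once the reagent was added. Beforehand, cells were cultured at 37°C and 5% carbon dioxide on a compound series serially diluted in dimethyl sulfoxide.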
# [2] = biological target: GDP-bound NRAS wild-type protein (Homo sapiens, UniProt P01111); experiment: Binding to NRAS by surface plasmon resonance (SPR), KD and KD ratio to KRAS
# Sequence of GDP-bound NRAS wild-type protein (P01111 whole entry): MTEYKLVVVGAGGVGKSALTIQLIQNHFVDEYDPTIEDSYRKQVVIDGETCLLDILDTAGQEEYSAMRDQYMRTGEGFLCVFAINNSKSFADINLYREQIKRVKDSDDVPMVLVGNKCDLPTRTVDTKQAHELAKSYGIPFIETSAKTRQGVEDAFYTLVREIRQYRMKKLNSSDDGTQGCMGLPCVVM
# Procedure, shortened: (§1)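 Each cycle, GDP-bound biotin-Avi RAS was captured (~100–300 RU), compound concentrations were injected low to high for 75 s each at 100 µL/min, then the chip was regenerated. Buffer: HBS pH 7.4, 10 mM MgCl2, 10 µM GDP, 1 mM DTT, 4% DMSO; 30°C. KD from a 1:1 binding model.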
# HRAS wild-type protein = HRAS wild-type protein (Homo sapiens, UniProt P01112); experiment: Binding to HRAS by surface plasmon resonance (SPR), KD and KD ratio to KRAS
# Sequence of HRAS wild-type protein (P01112 whole entry): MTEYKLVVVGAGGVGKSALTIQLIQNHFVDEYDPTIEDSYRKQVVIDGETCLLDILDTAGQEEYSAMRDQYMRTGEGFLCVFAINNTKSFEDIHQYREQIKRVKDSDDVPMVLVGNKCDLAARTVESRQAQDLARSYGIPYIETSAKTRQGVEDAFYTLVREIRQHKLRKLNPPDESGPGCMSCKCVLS
# Procedure, shortened: as §1
# [3] = biological target: GDP-bound KRAS wild-type protein (Homo sapiens, UniProt P01116); experiment: Binding to KRAS by surface plasmon resonance (SPR), dissociation constant KD
# Sequence of GDP-bound KRAS wild-type protein (P01116 1-188 isoform P01116-2): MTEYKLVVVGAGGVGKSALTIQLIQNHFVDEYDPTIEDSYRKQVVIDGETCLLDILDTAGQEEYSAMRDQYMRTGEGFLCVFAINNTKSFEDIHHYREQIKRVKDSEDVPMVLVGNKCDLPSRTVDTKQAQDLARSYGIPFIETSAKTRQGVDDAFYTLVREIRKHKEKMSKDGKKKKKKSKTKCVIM
# Procedure, shortened: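 Captured GDP-RAS (~100–300 RU) was exposed to increasing compound concentrations, 75 s per step, in running buffer with 10 µM GDP, 10 mM MgCl2 and 4% DMSO at pH 7.4.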
# [4] = ratio of KD for GDP-bound NRAS wild-type protein to KD for KRAS
# [5] = ratio of KD for HRAS wild-type protein to KD for KRAS
# [6] = 50% proliferation inhibitory concentration, four days
# [7] = ratio of KD with respect to GDP-bound NRAS wild-type protein to KD with respect to KRAS
# [8] = ratio of KD with respect to HRAS wild-type protein to KD with respect to KRAS
# [9] = Single Cycle Kinetics, 1:1 binding model
"IC50 ([1]; NCI-H441 cells, 4 days) [nM]",Kd ([3]; Single Cycle Kinetics) [nM],Kd ([3]; 1:1 binding model) [nM],"IC50 [1, 6] [nM]","Kd [3, 9] [nM]",Compound,"NRAS /KRAS [2, 4]",HRAS /KRAS (HRAS wild-type protein; [5]),"NRAS /KRAS [2, 7]",HRAS /KRAS (HRAS wild-type protein; [8])
7.5,0.26,–,–,–,CCC[C@H]1C(=O)N[C@@H]([C@@H](C)CC)C(=O)N2CCC[C@H]2C(=O)N(C)[C@H]2C/C=C\CCN(C2=O)[C@@H](Cc2ccc(C(F)(F)F)cc2)C(=O)N(C)CC(=O)N[C@@H](CCc2cc(F)c(C(F)(F)F)c(F)c2)C(=O)N2CC[C@H](OC)[C@H]2C(=O)N(C)C2(CCC2)C(=O)N(C)[C@@H](C2CCCC2)C(=O)N(C)[C@H](C(=O)N(C)C)CC(=O)N1C [PP3283],A (a compound having 10 or more and less than 20 is denoted as A),A (a compound having 10 or more and less than 20 is denoted as A),–,–
24.7,0.94,–,–,–,CCCN1CC(=O)N(C)[C@H]2C/C=C\CCN(C2=O)[C@@H](Cc2ccc(C(F)F)cc2)C(=O)N(C)CC(=O)N[C@@H](CCc2cc(F)c(C(F)(F)F)c(F)c2)C(=O)N2C[C@H](OC(C)C)C[C@H]2C(=O)N(C)C2(CCC2)C(=O)N(C)[C@@H](C(CC)CC)C(=O)N(C)[C@H](C(=O)N(C)C)CC(=O)N(C)[C@@H](COCC)C(=O)N[C@@H](C2CCCC2)C1=O [PP3498],A (a compound having 10 or more and less than 20 is denoted as A),A (a compound having 10 or more and less than 20 is denoted as A),–,–
70.3,–,1.2,–,–,CCCOC[C@H]1C(=O)N[C@@H]([C@@H](C)CC)C(=O)N(C)CC(=O)N(C)[C@H]2C/C=C\CCN(C2=O)[C@@H](Cc2ccc(C)cc2)C(=O)N(C)CC(=O)N[C@@H](CCc2cc(F)c(C(F)(F)F)c(F)c2)C(=O)N2C[C@H](OCC)C[C@H]2C(=O)NC2(CC(C)(C)C2)C(=O)N(C)[C@@H](CC2CCC2)C(=O)N(C)[C@H](C(=O)N(C)C)CC(=O)N1C [PP2752],A (a compound having 10 or more and less than 20 is denoted as A),A (a compound having 10 or more and less than 20 is denoted as A),–,–
109,–,2,–,–,C#CCN1CC(=O)N(C)[C@H]2C/C=C\CCN(C2=O)[C@@H](Cc2ccc(C)cc2)C(=O)N(C)CC(=O)N[C@@H](CCc2cc(F)c(C(F)(F)F)c(F)c2)C(=O)N2C[C@H](OCC)C[C@H]2C(=O)NC2(CC(C)(C)C2)C(=O)N(C)[C@@H](C2CCCC2)C(=O)N(C)[C@H](C(=O)N(C)C)CC(=O)N(C)[C@@H](CCC)C(=O)N[C@@H](CC(C)C)C1=O [PP2512],A (a compound having 10 or more and less than 20 is denoted as A),A (a compound having 10 or more and less than 20 is denoted as A),–,–
–,–,–,4.9,0.055,CCO[C@@H]1C[C@H]2C(=O)NC3(CCC3)C(=O)N(C)[C@@H](C3CCCC3)C(=O)N(C)[C@H](C(=O)N3CCOCC3)CC(=O)N(C)[C@@H](CC)C(=O)N[C@@H]([C@@H](C)CC)C(=O)N(C)CC(=O)N(C)[C@H]3C[C@@H](C)[C@@H](C)CN(C3=O)[C@@H](Cc3ccc(C(F)(F)F)cc3)C(=O)N(C)CC(=O)N[C@@H](CCc3ccc(C(F)(F)F)c(Cl)c3)C(=O)N2C1 [PP1360],–,–,A (a compound having 10 or more and less than 20 is denoted as A),B (a compound having 3 or more and less than 10 is denoted as B)
–,–,–,20.8,0.066,CCO[C@@H]1C[C@H]2C(=O)NC3(CCCC3)C(=O)N(C)[C@@H](C3CCCC3)C(=O)N(C)[C@H](C(=O)N(C)C)CC(=O)N(C)[C@@H](CC)C(=O)N[C@@H]([C@@H](C)CC)C(=O)N(C)CC(=O)N(C)[C@H]3C/C=C\CCN(C3=O)[C@@H](Cc3ccc(C(F)(F)F)cc3)C(=O)N(C)CC(=O)N[C@@H](CCc3cc(F)c(C(F)(F)F)c(F)c3)C(=O)N2C1 [PP1276],–,–,A (a compound having 10 or more and less than 20 is denoted as A),B (a compound having 3 or more and less than 10 is denoted as B)
4.5,0.019,–,–,–,CCC[C@H]1C(=O)N[C@@H]([C@@H](C)CC)C(=O)N(C)CC(=O)N(C)[C@H]2C/C=C\CCN(C2=O)[C@@H](Cc2ccc(C)cc2)C(=O)N(C)CC(=O)N[C@@H](CCc2cc(F)c(C(F)(F)F)c(F)c2)C(=O)N2CC3(CC3)C[C@H]2C(=O)N(C)C2(CCC2)C(=O)N(C)[C@@H](CC(C)(C)C)C(=O)N(C)[C@H](C(=O)N(C)C)CC(=O)N1C [PP3333],B (a compound having 3 or more and less than 10 is denoted as B),B (a compound having 3 or more and less than 10 is denoted as B),–,–
4.1,–,0.069,–,–,CCO[C@@H]1C[C@H]2C(=O)NC3(CC(C)(C)C3)C(=O)N(C)[C@@H](C3CCCC3)C(=O)N(C)[C@H](C(=O)N(C)CC)CC(=O)N(C)[C@@H](COC)C(=O)N[C@@H]([C@@H](C)CC)C(=O)N(C)CC(=O)N(C)[C@H]3C/C=C\CCN(C3=O)[C@@H](Cc3ccc(C)cc3)C(=O)N(C)CC(=O)N[C@@H](CCc3cc(F)c(C(F)(F)F)c(F)c3)C(=O)N2C1 [PP2396],A (a compound having 10 or more and less than 20 is denoted as A),A (a compound having 10 or more and less than 20 is denoted as A),–,–
88.7,–,2,–,–,CCC(CC)[C@H]1C(=O)N(C)[C@H](C(=O)N(C)C)CC(=O)N(C)[C@@H](COC)C(=O)N[C@@H]([C@@H](C)CC)C(=O)N(C2CC2)CC(=O)N(C)[C@H]2C/C=C\CCN(C2=O)[C@@H](CC2CCC(F)(F)CC2)C(=O)N(C)CC(=O)N[C@@H](CCc2cc(F)c(C(F)(F)F)c(F)c2)C(=O)N2C[C@H](OC3CCC3)C[C@H]2C(=O)NC2(CC(C)(C)C2)C(=O)N1C [PP2615],A (a compound having 10 or more and less than 20 is denoted as A),A (a compound having 10 or more and less than 20 is denoted as A),–,–
–,–,–,3.6,0.017,CCO[C@@H]1C[C@H]2C(=O)NC3(CCCC3)C(=O)N(C)[C@@H](C3CCCC3)C(=O)N(C)[C@H](C(=O)N(C)C)CC(=O)N(C)[C@@H](CC)C(=O)N[C@@H]([C@@H](C)CC)C(=O)N(C)CC(=O)N(C)[C@H]3C[C@H](C)C(C)CN(C3=O)[C@@H](Cc3ccc(C(F)(F)F)cc3)C(=O)N(C)CC(=O)N[C@@H](CCc3cc(F)c(C(F)(F)F)c(F)c3)C(=O)N2C1 (stereo partly drawn) [PP1347],–,–,B (a compound having 3 or more and less than 10 is denoted as B),B (a compound having 3 or more and less than 10 is denoted as B)
–,–,–,12.2,0.045,CCOC[C@H]1C(=O)N[C@@H]([C@@H](C)CC)C(=O)N(C)CC(=O)N(C)[C@H]2C/C=C\CCN(C2=O)[C@@H](Cc2ccc(C(F)(F)F)cc2)C(=O)N(C)CC(=O)N[C@@H](CCc2cc(F)c(C(F)(F)F)c(F)c2)C(=O)N2C[C@H](OCC)C[C@H]2C(=O)NC2(CCC2)C(=O)N(C)[C@@H](C2CCCC2)C(=O)N(C)[C@H](C(=O)N(C)C)CC(=O)N1C [PP1266],–,–,A (a compound having 10 or more and less than 20 is denoted as A),A (a compound having 10 or more and less than 20 is denoted as A)
36.6,–,0.44,–,–,CCC(CC)[C@H]1C(=O)N(C)[C@H](C(=O)N(C)C)CC(=O)N(C)[C@@H](COC)C(=O)N[C@@H]([C@@H](C)CC)C(=O)N(C)CC(=O)N(C)[C@H]2C/C=C\CCN(C2=O)[C@@H](Cc2ccc(C(F)(F)F)cc2)C(=O)N(C)CC(=O)N[C@@H](CCc2ccc(Cl)c(Cl)c2)C(=O)N2C[C@H](OC3CCC3)C[C@H]2C(=O)NC2(CC(C)(C)C2)C(=O)N1C [PP2642],AA (a compound having 20 or more is denoted as AA),A (a compound having 10 or more and less than 20 is denoted as A),–,–
20.2,0.13,–,–,–,CCO[C@@H]1C[C@H]2C(=O)NC3(CC(C)(C)C3)C(=O)N(C)[C@@H](C3CCCC3)C(=O)N(C)[C@H](C(=O)N(C)C)CC(=O)N[C@@H](CC(C)C)C(=O)N[C@@H]([C@@H](C)CC)C(=O)N(C)CC(=O)N(C)[C@H]3C/C=C\CCN(C3=O)[C@@H](Cc3ccc(C(F)(F)F)cc3)C(=O)N(C)CC(=O)N[C@@H](CCc3ccc(C(F)(F)F)c(OC)c3)C(=O)N2C1 [PP3445],A (a compound having 10 or more and less than 20 is denoted as A),A (a compound having 10 or more and less than 20 is denoted as A),–,–
8.1,0.11,–,–,–,CCC[C@H]1C(=O)N[C@@H]([C@@H](C)CC)C(=O)N(C)CC(=O)N(C)[C@H]2C/C=C\CCN(C2=O)[C@@H](Cc2ccc(C(F)(F)F)cc2)C(=O)N(C)CC(=O)N[C@@H](CCc2ccc(C(F)(F)F)c(Cl)c2)C(=O)N2CC3(CC3)C[C@H]2C(=O)N(C)C2(CCC2)C(=O)N(C)[C@@H]([C@@H](C)CC)C(=O)N(C)[C@H](C(=O)N(C)C)CC(=O)N1C [PP3299],A (a compound having 10 or more and less than 20 is denoted as A),A (a compound having 10 or more and less than 20 is denoted as A),–,–
104,3.6,–,–,–,C=C(C)C[C@H]1C(=O)N(C)[C@H](C(=O)N(C)C)CC(=O)N(C)[C@@H](CCC)C(=O)N[C@@H]([C@@H](C)CC)C(=O)N2CCC[C@H]2C(=O)N(C)[C@H]2C/C=C\CCN(C2=O)[C@@H](Cc2ccc(C(F)(F)F)cc2)C(=O)N(C)CC(=O)N[C@@H](CCc2cc(F)c(C(F)(F)F)c(F)c2)C(=O)N2C[C@H](OCC)C[C@H]2C(=O)N(C)C2(CCC2)C(=O)N1C [PP3339],A (a compound having 10 or more and less than 20 is denoted as A),A (a compound having 10 or more and less than 20 is denoted as A),–,–
